In the assay the target is T1, human RIPK1 (1-375) (Homo sapiens, UniProt Q13546).
T1 construct: human RIPK1 (1-375) gene; GST; made in house; host or cells: Sf-9 insect cells
T1 sequence (Q13546 1-375): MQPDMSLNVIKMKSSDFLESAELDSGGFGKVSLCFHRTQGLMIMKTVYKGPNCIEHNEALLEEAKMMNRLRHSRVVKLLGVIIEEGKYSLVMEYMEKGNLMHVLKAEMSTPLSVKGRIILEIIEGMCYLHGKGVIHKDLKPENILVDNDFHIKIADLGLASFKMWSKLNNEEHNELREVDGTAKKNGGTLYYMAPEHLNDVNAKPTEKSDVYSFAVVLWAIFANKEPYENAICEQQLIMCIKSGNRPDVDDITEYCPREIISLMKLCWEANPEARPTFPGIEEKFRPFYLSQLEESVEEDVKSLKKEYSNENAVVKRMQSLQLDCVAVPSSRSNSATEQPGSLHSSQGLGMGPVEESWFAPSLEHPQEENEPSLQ
Nature of the assay: Human RIPK1 enzyme inhibitory effect (ADP-Glo Kinase Assay). It is filed as biochemical. The settings on record: well without enzyme = 100% inhibition; for inhibition at 10 µM: read-out: human RIPK1 enzyme inhibitory effect at 10 μM (% inhibition), 10 μM test compound. The essentials: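 Human RIPK1 (1-375), GST-purified from Sf-9 cells, preincubated 20 min at room temperature with compound in 25 mM HEPES pH 7.5, 10 mM MgCl2, 0.01% Tween-20, 2 mM DTT. Reaction started with 0.6 mM ATP solution (stock), run 120 min at room temperature. ADP measured by ADP-Glo luminescence.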
(ADP-Glo turns the ADP formed in a reaction into a luminescent signal.)

What is called inhibition is the change of the read-out against control, counted positive when it falls. For the compound `CN1C(=O)[C@@H](N2CCc3cn(Cc4cccnc4)nc3C2=O)COc2ccccc21` [Example 153, (3S)-5-methyl-3-(7-oxo-2-(pyridin-3-ylmethyl)-2,4,5,7-tetrahydro-6H-pyrazolo[3,4-c]pyridin-6-yl)-2,3-dihydro-1,5-benzoxazepin-4(5H)-one], the inhibition at 10 µM was 95%. Same read-out and setting: to `CN1C(=O)[C@@H](N2CCc3cn(CC4(C)COC4)nc3C2=O)COc2ccccc21` [Example 154, (3S)-5-methyl-3-(2-((3-methyloxetan-3-yl)methyl)-7-oxo-2,4,5,7-tetrahydro-6H-pyrazolo[3,4-c]pyridin-6-yl)-2,3-dihydro-1,5-benzoxazepin-4(5H)-one] belongs 78%; to `COc1cccc(Cn2cc3c(n2)C(=O)N([C@H]2COc4ccccc4N(C)C2=O)CC3)c1` [Example 155, (3S)-3-(2-(3-methoxybenzyl)-7-oxo-2,4,5,7-tetrahydro-6H-pyrazolo[3,4-c]pyridin-6-yl)-5-methyl-2,3-dihydro-1,5-benzoxazepin-4(5H)-one], 97%. As to `CN1C(=O)[C@@H](N2CCc3cn(Cc4cccc(F)c4)nc3C2=O)CSc2ccccc21` [Example 156, (3R)-3-(2-(3-fluorobenzyl)-7-oxo-2,4,5,7-tetrahydro-6H-pyrazolo[3,4-c]pyridin-6-yl)-5-methyl-2,3-dihydro-1,5-benzothiazepin-4(5H)-one], the inhibition at 10 µM was determined as 97%. As to `CN1C(=O)[C@@H](N2CCc3cn(Cc4ccc(F)cc4)nc3C2=O)COc2ccccc21` [Example 157, (3S)-3-(2-(4-fluorobenzyl)-7-oxo-2,4,5,7-tetrahydro-6H-pyrazolo[3,4-c]pyridin-6-yl)-5-methyl-2,3-dihydro-1,5-benzoxazepin-4(5H)-one], the inhibition at 10 µM came out at 95%. On the same count and under the same terms, the same measure for `CN1C(=O)[C@@H](N2CCc3cn(Cc4cccc(F)c4)nc3C2=O)COc2ccccc21` [Example 158, (3S)-3-(2-(3-fluorobenzyl)-7-oxo-2,4,5,7-tetrahydro-6H-pyrazolo[3,4-c]pyridin-6-yl)-5-methyl-2,3-dihydro-1,5-benzoxazepin-4(5H)-one]: 99%; for `CN1C(=O)[C@@H](N2CCc3c(nn(Cc4ccccc4)c3C3CC3)C2=O)COc2ccccc21` [Example 159, (3S)-3-(2-benzyl-3-cyclopropyl-7-oxo-2,4,5,7-tetrahydro-6H-pyrazolo[3,4-c]pyridin-6-yl)-5-methyl-2,3-dihydro-1,5-benzoxazepin-4(5H)-one]: 100%; for `COc1ccc(Cn2cc3c(n2)C(=O)N([C@H]2COc4ccccc4N(C)C2=O)CC3)cc1` [Example 161, (3S)-3-(2-(4-methoxybenzyl)-7-oxo-2,4,5,7-tetrahydro-6H-pyrazolo[3,4-c]pyridin-6-yl)-5-methyl-2,3-dihydro-1,5-benzoxazepin-4(5H)-one]: 99%.

Take `CN1C(=O)[C@@H](N2CCc3cn(Cc4ccc(C#N)cc4F)nc3C2=O)COc2ccccc21` [Example 162, 3-fluoro-4-((6-((3S)-5-methyl-4-oxo-2,3,4,5-tetrahydro-1,5-benzoxazepin-3-yl)-7-oxo-4,5,6,7-tetrahydro-2H-pyrazolo[3,4-c]pyridin-2-yl)methyl)benzonitrile]: the inhibition at 10 µM was 99%.

Consider `CN1C(=O)[C@@H](N2CCc3cn(CC4CCS(=O)(=O)C4)nc3C2=O)COc2ccccc21` (stereo partly drawn) [Example 163, (3S)-3-(2-((1,1-dioxidotetrahydrothiophen-3-yl)methyl)-7-oxo-2,4,5,7-tetrahydro-6H-pyrazolo[3,4-c]pyridin-6-yl)-5-methyl-2,3-dihydro-1,5-benzoxazepin-4(5H)-one], for which the inhibition at 10 µM stood at 53%.

In the case of `CN1C(=O)[C@@H](N2CCc3cn(Cc4ccc(S(C)(=O)=O)cc4)nc3C2=O)COc2ccccc21` [Example 164, (3S)-5-methyl-3-(2-(4-(methylsulfonyl)benzyl)-7-oxo-2,4,5,7-tetrahydro-6H-pyrazolo[3,4-c]pyridin-6-yl)-2,3-dihydro-1,5-benzoxazepin-4(5H)-one], the inhibition at 10 µM is 98%.

In the case of `CN1C(=O)[C@@H](N2CCc3cn(Cc4c(Cl)cccc4C#N)nc3C2=O)COc2ccccc21` [Example 165, 3-chloro-2-((6-((3S)-5-methyl-4-oxo-2,3,4,5-tetrahydro-1,5-benzoxazepin-3-yl)-7-oxo-4,5,6,7-tetrahydro-2H-pyrazolo[3,4-c]pyridin-2-yl)methyl)benzonitrile], the inhibition at 10 µM was 99%.

In the case of `CN1C(=O)[C@@H](N2CCc3cn(Cc4cccc(S(C)(=O)=O)c4)nc3C2=O)COc2ccccc21` [Example 166, (3S)-5-methyl-3-(2-(3-(methylsulfonyl)benzyl)-7-oxo-2,4,5,7-tetrahydro-6H-pyrazolo[3,4-c]pyridin-6-yl)-2,3-dihydro-1,5-benzoxazepin-4(5H)-one], the inhibition at 10 µM was 88%. The same measure, in the same setting: the same measure for `CN1C(=O)[C@@H](N2CCc3cn(Cc4ccc(Cl)cc4F)nc3C2=O)COc2ccccc21` [Example 168, (3S)-3-(2-(4-chloro-2-fluorobenzyl)-7-oxo-2,4,5,7-tetrahydro-6H-pyrazolo[3,4-c]pyridin-6-yl)-5-methyl-2,3-dihydro-1,5-benzoxazepin-4(5H)-one]: 100%. The same measure, in the same setting: to `CN1C(=O)[C@@H](N2CCc3c(nn(Cc4ccccc4)c3-c3cnn(C)c3)C2=O)COc2ccccc21` [Example 169, (3S)-3-(2-benzyl-3-(1-methyl-1H-pyrazol-4-yl)-7-oxo-2,4,5,7-tetrahydro-6H-pyrazolo[3,4-c]pyridin-6-yl)-5-methyl-2,3-dihydro-1,5-benzoxazepin-4(5H)-one] belongs 80%. As to `CN1C(=O)[C@@H](N2CCc3cn(CC4CCCOC4)nc3C2=O)COc2ccccc21` (stereo partly drawn) [Example 170, (3S)-5-methyl-3-(7-oxo-2-(tetrahydro-2H-pyran-3-ylmethyl)-2,4,5,7-tetrahydro-6H-pyrazolo[3,4-c]pyridin-6-yl)-2,3-dihydro-1,5-benzoxazepin-4(5H)-one], the inhibition at 10 µM was 97%.

As for `CN1C(=O)[C@@H](N2CCc3cn(CC4CCOC4)nc3C2=O)COc2ccccc21` (stereo partly drawn) [Example 171, (3S)-5-methyl-3-(7-oxo-2-(tetrahydrofuran-3-ylmethyl)-2,4,5,7-tetrahydro-6H-pyrazolo[3,4-c]pyridin-6-yl)-2,3-dihydro-1,5-benzoxazepin-4(5H)-one], the inhibition at 10 µM came to 88%. On the same count and under the same terms, to `CN1C(=O)[C@@H](N2CCc3cn(Cc4cc(C#N)ccc4F)nc3C2=O)COc2ccccc21` [Example 172, 4-fluoro-3-((6-((3S)-5-methyl-4-oxo-2,3,4,5-tetrahydro-1,5-benzoxazepin-3-yl)-7-oxo-4,5,6,7-tetrahydro-2H-pyrazolo[3,4-c]pyridin-2-yl)methyl)benzonitrile] belongs 99%; to `CN1C(=O)[C@@H](N2CCc3cn(CC4(C)CCC4)nc3C2=O)COc2ccccc21` [Example 173, (3S)-5-methyl-3-(2-((1-methylcyclobutyl)methyl)-7-oxo-2,4,5,7-tetrahydro-6H-pyrazolo[3,4-c]pyridin-6-yl)-2,3-dihydro-1,5-benzoxazepin-4(5H)-one], 98%.

With `CN1C(=O)[C@@H](N2CCc3c(nn(Cc4ccccc4)c3Cl)C2=O)COc2cc(C(=O)NCCOCCOCCOCCNC(=O)c3ccc4c(c3)OC[C@H](N3CCc5c(nn(Cc6ccccc6)c5Cl)C3=O)C(=O)N4C)ccc21` [Example 174, (3S)-3-(2-benzyl-3-chloro-7-oxo-2,4,5,7-tetrahydro-6H-pyrazolo[3,4-c]pyridin-6-yl)-N-(13-((3S)-3-(2-benzyl-3-chloro-7-oxo-2,4,5,7-tetrahydro-6H-pyrazolo[3,4-c]pyridin-6-yl)-5-methyl-4-oxo-2,3,4,5-tetrahydro-1,5-benzoxazepin-8-yl)-13-oxo-3,6,9-trioxa-12-azatridec-1-yl)-5-methyl-4-oxo-2,3,4,5-tetrahydro-1,5-benzoxazepine-8-carboxamide], the inhibition at 10 µM came to 101%. Consider “(3S)-7-chloro-3-(3-chloro-1-oxo- 2-(pyrazin-2-ylmethyl)-2,4,5,7- tetrahydro-6H-pyrazolo[3,4- c]pyridin-6-yl)-5-methyl-2,3- dihydro-1,5-benzoxazepin-4(5H)- one [Example 74]”, for which, for the setting “10 μM test compound”, the “human RIPK1 enzyme inhibitory effect at 10 μM (% inhibition)” value is 97%.

Values taken from US10787462B2, “Heterocyclic compound” (TAKEDA PHARMACEUTICAL COMPANY LIMITED, priority 2015, dated 2020).
